Experimental data taken from US9896418B2, “Aryl ethers and uses thereof” (Peloton Therapeutics, Inc., priority 2013, dated 2018).

test system: HIF-2α HIS TAG-PASB Domain; assay: HIF-2α Scintillation Proximity Assay (SPA); assay type: binding
Experimental: The percent inhibition was determined and IC50 values were calculated using the Dotmatics system based on the following equation: % inhibition=[(high control−sample)/(high control−low control)]×100.

Row | SMILES | IC50 [nM]
1 | CS(=O)(=NC#N)c1ccc(Oc2cncc(C#N)c2)c2c1[C@H](O)C(F)(F)[C@@H]2F (single isomer, unassigned) [Compound 319] | 14
2 | CS(=O)(=NC#N)c1ccc(Oc2cncc(C#N)c2)c2c1[C@H](O)C(F)(F)[C@@H]2F (single isomer, unassigned) [Compound 321] | 32
3 | O=S(=O)(c1ccc(Oc2cc(F)cc(F)c2)c2c1[C@H](O)CC2)C(F)F [Compound 2, (R)-7-((Difluoromethyl)sulfonyl)-4-(3,5-difluorophenoxy)-2,3-dihydro-1H-inden-1-ol] | < 5
4 | O=S(=O)(c1ccc(Oc2cncc(Cl)c2)c2c1[C@H](O)CC2)C(F)F [Compound 3, (R)-4-((5-chloropyridin-3-yl)oxy)-7-((difluoromethyl)sulfonyl)-2,3-dihydro-1H-inden-1-ol] | 340
5 | N#Cc1cncc(Oc2ccc(S(=O)(=O)C(F)F)c3c2CC[C@H]3O)c1 [Compound 4, (R)-5-((7-((Difluoromethyl)sulfonyl)-1-hydroxy-2,3-dihydro-1H-inden-4-yl)oxy)nicotinonitrile] | 3300
6 | O=S(=O)(c1ccc(Oc2cncc(F)c2)c2c1[C@H](O)CC2)C(F)F [Compound 5, (R)-7-((difluoromethyl)sulfonyl)-4-((5-fluoropyridin-3-yl)oxy)-2,3-dihydro-1H-inden-1-ol] | 900
7 | O=S(=O)(c1ccc(Oc2cc(F)cc(Cl)c2)c2c1C(O)C(F)(F)C2)C(F)F (stereo not shown) [Compound 8, 4-(3-chloro-5-fluoro-phenoxy)-7-(difluoromethylsulfonyl)-2,2-difluoro-indan-1-ol] | < 5
8 | O=S(=O)(c1ccc(Oc2cc(F)cc(F)c2)c2c1C(O)C(F)(F)C2)C(F)F (stereo not shown) [Compound 9, 7-(difluoromethylsulfonyl)-4-(3,5-difluorophenoxy)-2,2-difluoro-indan-1-ol] | < 5
9 | C=CCC1(O)c2c(S(=O)(=O)C(F)F)ccc(Oc3cc(F)cc(F)c3)c2CC1(F)F (stereo not shown) [Compound 12, 1-allyl-7-(difluoromethylsulfonyl)-4-(3,5-difluorophenoxy)-2,2-difluoro-indan-1-ol] | 9800
10 | N#CCS(=O)(=O)c1ccc(Oc2cc(F)cc(F)c2)c2c1C(O)CC2 (stereo not shown) [Compound 14, 2-[7-(3,5-difluorophenoxy)-3-hydroxy-indan-4-yl]sulfonylacetonitrile] | 5200
11 | O=C1CCc2c(Oc3cc(F)cc(Cl)c3)ccc(S(=O)(=O)C(F)F)c21 [Compound 18, 4-(3-chloro-5-fluorophenoxy)-7-((difluoromethyl)sulfonyl)-2,3-dihydro-1H-inden-1-one] | 120
12 | NC1CCc2c(Oc3cc(F)cc(F)c3)ccc(S(=O)(=O)C(F)F)c21 (stereo not shown) [Compound 19, 7-((difluoromethyl)sulfonyl)-4-(3,5-difluorophenoxy)-2,3-dihydro-1H-inden-1-amine] | 38000
13 | O=S(=O)(c1ccc(Oc2cc(F)cc(F)c2)c2c1CCC2)C(F)F [Compound 20, 4-((Difluoromethyl)sulfonyl)-7-(3,5-difluorophenoxy)-2,3-dihydro-1H-indene] | 1100
14 | O=S(=O)(c1ccc(Oc2cc(F)cc(F)c2)c2c1C=CC2)C(F)F [Compound 21, 4-((Difluoromethyl)sulfonyl)-7-(3,5-difluorophenoxy)-1H-indene] | 140
15 | O=S(=O)(c1ccc(Oc2cc(F)cc(F)c2)c2c1C(CO)CC2)C(F)F (stereo not shown) [Compound 24, (7-((Difluoromethyl)sulfonyl)-4-(3,5-difluorophenoxy)-2,3-dihydro-1H-inden-1-yl)methanol] | 920
16 | Cc1c(S(=O)(=O)C(F)F)ccc(Oc2cc(F)cc(Cl)c2)c1C#N [Compound 32, 6-(3-Chloro-5-fluorophenoxy)-3-((difluoromethyl)sulfonyl)-2-methylbenzonitrile] | 18
17 | CN(C)Cc1c(S(=O)(=O)C(F)F)ccc(Oc2cc(F)cc(Cl)c2)c1C#N [Compound 36, 6-(3-Chloro-5-fluorophenoxy)-3-((difluoromethyl)sulfonyl)-2-((dimethylamino)methyl)benzonitrile] | 17000
18 | Cc1c([S+]([O-])C(F)F)ccc(Oc2cc(F)cc(Cl)c2)c1C#N (stereo not shown) [Compound 37, 6-(3-Chloro-5-fluorophenoxy)-3-((difluoromethyl)sulfinyl)-2-methylbenzonitrile] | 6700
19 | O=S(=O)(c1ccc(Oc2cc(F)cc(Cl)c2)c(Cl)c1Cn1ccnc1)C(F)F [Compound 45, 1-(2-Chloro-3-(3-chloro-5-fluorophenoxy)-6-((difluoromethyl)sulfonyl)benzyl)-1H-imidazole] | 6100
20 | O=S(=O)(c1ccc(Oc2cc(F)cc(Cl)c2)c(Cl)c1CNCC(F)(F)F)C(F)F [Compound 47, N-(2-Chloro-3-(3-chloro-5-fluorophenoxy)-6-((difluoromethyl)sulfonyl)benzyl)-2,2,2-trifluoroethan-1-amine] | 9000
21 | O=S(=O)(c1ccc(Oc2cc(F)cc(Cl)c2)c(Cl)c1CNC1CCOCC1)C(F)F [Compound 48, N-(2-Chloro-3-(3-chloro-5-fluorophenoxy)-6-((difluoromethyl)sulfonyl)benzyl)tetrahydro-2H-pyran-4-amine] | 920
22 | O=S(=O)(c1ccc(Oc2cc(F)cc(Cl)c2)c(Cl)c1CNC1CCCOC1)C(F)F (stereo not shown) [Compound 49, N-(2-Chloro-3-(3-chloro-5-fluorophenoxy)-6-((difluoromethyl)sulfonyl)benzyl)tetrahydro-2H-pyran-3-amine] | 13000
23 | Cc1c(S(C)(=O)=O)ccc(Oc2cc(F)cc(Cl)c2)c1C(F)F [Compound 53, 1-(3-Chloro-5-fluorophenoxy)-2-(difluoromethyl)-3-methyl-4-(methylsulfonyl)benzene] | 330

Continued, values first:

Row | IC50 [nM] | SMILES
24 | 5100 | N#Cc1cc(F)cc(Oc2ccc(S(=O)(=O)C(F)(F)F)c3c2[C@@H](N)C[C@H]3O)c1 (relative stereo) [Compound 279, 3-((cis-3-amino-1-hydroxy-7-((trifluoromethyl)sulfonyl)-2,3-dihydro-1H-inden-4-yl)oxy)-5-fluorobenzonitrile]
25 | 94 | N#Cc1cc(F)cc(Oc2ccc(S(=N)(=O)CF)c3c2CC(F)(F)[C@H]3O)c1 (single isomer, unassigned) [Example 274]
26 | 71 | N#CN=S(=O)(CF)c1ccc(Oc2cc(F)cc(C#N)c2)c2c1[C@H](O)C(F)(F)C2 (single isomer, unassigned) [Example 285]
27 | < 5 | CS(=O)(=NC#N)c1ccc(Oc2cc(F)cc(C#N)c2)c2c1[C@H](O)C(F)(F)[C@@H]2F (single isomer, unassigned) [Example 316]
28 | 6600 | CC1(O)c2c(S(=O)(=O)C(F)F)ccc(Oc3cc(F)cc(C#N)c3)c2CC1(F)F (stereo not shown) [Compound 13, 3-[7-(difluoromethylsulfonyl)-2,2-difluoro-1-hydroxy-1-methyl-indan-4-yl]oxy-5-fluoro-benzonitrile]
29 | 49900 | N#Cc1c(Oc2cc(F)cc(Cl)c2)ccc(S(=O)(=O)C(F)(F)F)c1Cl [Compound 28, 2-Chloro-6-(3-chloro-5-fluorophenoxy)-3-((trifluoromethyl)sulfonyl)benzonitrile]
30 | 22 | N#Cc1cc(F)cc(Oc2ccc(S(=O)(=O)C(F)(F)F)c(Cl)c2C#N)c1 [Compound 29, 2-Chloro-6-(3-cyano-5-fluorophenoxy)-3-((trifluoromethyl)sulfonyl)benzonitrile]
31 | 157 | Cc1c(S(=O)(=O)C(F)F)ccc(Oc2cc(F)cc(C#N)c2)c1C#N [Compound 33, 6-(3-Cyano-5-fluorophenoxy)-3-((difluoromethyl)sulfonyl)-2-methylbenzonitrile]
32 | < 5 | Cc1c(S(=O)(=O)C(F)F)ccc(Oc2cc(F)cc(F)c2)c1C#N [Compound 34, 3-((Difluoromethyl)sulfonyl)-6-(3,5-difluorophenoxy)-2-methylbenzonitrile]
33 | 2000 | Cc1c(S(C)(=O)=O)ccc(Oc2cc(F)cc(C#N)c2)c1C#N [Compound 51, 6-(3-Cyano-5-fluorophenoxy)-2-methyl-3-(methylsulfonyl)benzonitrile]
34 | 46 | Cc1c(S(C)(=O)=O)ccc(Oc2cc(F)cc(F)c2)c1C#N [Compound 52, 6-(3,5-Difluorophenoxy)-2-methyl-3-(methylsulfonyl)benzonitrile]
35 | 5000 | N#Cc1ccc(Oc2cc(F)cc(F)c2)c2c1[C@H](O)CC2 [Compound 66, (R)-7-(3,5-Difluorophenoxy)-3-hydroxy-2,3-dihydro-1H-indene-4-carbonitrile]
36 | 3100 | CS(=O)(=NC#N)c1ccc(Oc2cc(F)cc(C#N)c2)c2c1C(O)CC2 (stereo not shown) [Compound 68]
37 | 1300 | N=S(=O)(c1ccc(Oc2cc(F)cc(Cl)c2)c(Br)c1)C(F)F (stereo not shown) [Compound 69, 2-bromo-1-(3-chloro-5-fluorophenoxy)-4-((difluoromethyl)sulfonimidoyl)benzene]
38 | 770 | CN=S(=O)(c1ccc(Oc2cc(F)cc(Cl)c2)c(Br)c1)C(F)F (stereo not drawn) [Compound 70, N-methyl-2-bromo-1-(3-chloro-5-fluorophenoxy)-4-(S-(difluoromethyl)sulfonimidoyl)benzene]
39 | 640 | N=S(=O)(c1ccc(Oc2cc(F)cc(Cl)c2)c(Br)c1)C(F)(F)F (stereo not shown) [Compound 71, 2-bromo-1-(3-chloro-5-fluorophenoxy)-4-((trifluoromethyl)sulfonimidoyl)benzene]
40 | 510 | N#Cc1cc(S(=N)(=O)C(F)(F)F)ccc1Oc1cc(F)cc(Cl)c1 (stereo not shown) [Compound 72, 2-(3-chloro-5-fluorophenoxy)-5-((trifluoromethyl)sulfonimidoyl)benzonitrile]
41 | 1400 | N#Cc1cc(F)cc(Oc2ccc(S(=N)(=O)C(F)(F)F)cc2C#N)c1 (stereo not shown) [Compound 73, 2-(3-cyano-5-fluorophenoxy)-5-((trifluoromethyl)sulfonimidoyl)benzonitrile]
42 | 240 | N=S(=O)(c1ccc(Oc2cc(F)cc(Cl)c2)c(Br)c1Cl)C(F)(F)F (stereo not shown) [Compound 75, (3-bromo-2-chloro-4-(3-chloro-5-fluorophenoxy)phenyl)(imino)(trifluoromethyl)-λ^6-sulfanone]
43 | 880 | N#Cc1c(S(=O)(=O)C(F)F)ccc(Oc2cc(F)cc(Cl)c2)c1Br [Compound 76, 2-bromo-3-(3-chloro-5-fluorophenoxy)-6-((difluoromethyl)sulfonyl)benzonitrile]
